Reference: US20230137849A1, “USE OF A COMPOUND OF THE DIURETICS CLASS FOR TREATING CANCER” (AZELEAD, priority 2017, published 2023)
Where two headings read alike, the source gives them in different places.

What was measured:
[1] = test system: hematopoietic stem cells CD41:GFP accumulated in the CHT; assay type: in vivo; conditions: for reduction of the number of HSCs accumulated in CHT: 10 μM (FIG. 3; b188 prints 10 μl), 24 h, vs reference embryos treated with DMSO; for efficiency on number of cells migrated to CHT: 24 hours, FIG. 6
Description: A method for determining whether a molecule is capable of treating cancer in the pre-metastatic state has been described in international application WO 2011/007259. This method consists in isolating molecules capable of inhibiting the emergence of hematopoietic stem cells from the floor of the aorta without cell division, but by endothelial-to-hematopoietic transition. This emergence involves the loss of cell polarity of emerging cells, the loss of cellular junctions with these neighboring cells and the acquisition of migratory properties. This model is used because it mimics each stage of the epithelial-mesenchymal transition, the first stage of cancer metastasis. The endothelial-to-hematopoietic transition takes place in a region of the embryo called Aorta-Gonad-Mesonephros (AGM).
(§1) The colonization of hematopoietic tissues by hematopoietic stem cells mimics the appearance and/or progression of a metastatic cancerous tumor since it involves intravasation, extravasation, or the migration of HSCs following a gradient of SDF-1. The first colonized tissue is caudal hematopoietic tissue (CHT).
In order to evaluate the inhibition of the endothelial-to-hematopoietic transition, transgenic CD41:GFP (green fluorescent protein) embryos are used. HSCs express GFP under the control of the CD41 promoter, which allows them to be monitored in vivo under a fluorescence microscope. The read-out is the number of hematopoietic stem cells CD41:GFP accumulated in the AGM (mimicking the initiation of the metastatic process) and/or in the CHT of the zebrafish embryo (mimicking the progression of the metastatic process). The accumulation of CD41:GFP cells in CHT implies that each cell has made an endothelial-to-hematopoietic transition, intravasation, extravasation at the CHT level, has settled in a stromal niche and has proliferated.
The Tg transgenic zebrafish line (CD41:GFP) is maintained in accordance with the protocols described by the Ethical Committee for Animal Experimentation. The fish are kept at a temperature of 28° C. and their development stage is determined as before. The molecules are tested on zebrafish embryos at the 25 hpf stage. The embryos are decorticated and transferred to a 96-well plate (1 embryo/well) containing the test compounds in a final volume of 100 μl of the embryonic growth medium (60 μg salt for 1 ml H2O). […] The treated embryos are incubated for 24 hours in an incubator at 28° C.
The embryos are imaged with a plate reader after being anesthetized with 0.16% tricaine (ethyl-3-aminobenzoate). A quantification of the number of fluorescent cells (CD41:GFP) accumulated in the CHT is carried out.
Althiazide was tested on the zebrafish embryo according to the method previously described in the international application WO 2011/007259. This method consists in isolating molecules capable of inhibiting the emergence of hematopoietic stem cells from the floor of the aorta without cell division, but by endothelial-to-hematopoietic transition. This emergence involves the loss of cell polarity of emerging cells, the loss of cellular junctions with these neighboring cells and the acquisition of migratory properties. This model is used, in the context of the invention, because it mimics each of the stages of the epithelial-to-mesenchymal transition, the first stage of the cancerous metastasis. The endothelial-to-hematopoietic transition takes place in a region of the embryo called Aorto-Gonado-Mesonephros (AGM).
as §1, with “metastatic” for “metastatic cancerous”, “SDF1.” for “SDF-1.”, “(CHT). This physiological process is considered, in the context of the invention, as representative of the appearance and/or progression of a metastatic tumor. […]” for “(CHT).”

N-CADHERIN = test: q-RT-PCR expression of EMT markers in MDA-MB-231 cells under hypoxia: N-CADHERIN; assay type: cell-based, human; conditions: althiazide 100 μM, hypoxic conditions (1% O2), vs control, FIG. 11
Experimental: (§2) The cell cultures are carried out on human breast cancer epithelial cell lines MDA-MB-231 (HTB-26™), resulting from metastases present in a pleural effusion of a patient with a mammary adenocarcinoma. This line is used as a triple negative cancer cell model (no expression of ER-type nuclear estrogen receptors, nuclear progesterone receptors or overexpression of the oncogene encoding HER2 protein (Human Epidermal Growth factor Receptor-2).
(§3) The cells were cultured in DMEM medium (Eurobio, Fance) supplemented with 10% fetal calf serum (FCS) (Eurobio, Fance) at 37° C., 5% CO2. The medium was changed every 3 days.
(§4) The cells were placed in a controlled atmosphere at 1% oxygen 24 hours before the application of the different treatments.
(§5) The expression of the mRNAs is measured by the q-RT-PCR method. The cells were seeded at the density of 500,000 cells/well in 6-well plates. After 24 hours at 37° C., 5% CO2 and 1% O2, the medium was renewed and added the various treatments. RNA was isolated using TRI Reagent® (sigma), assayed and retro-transcribed into complementary DNA using the PrimeScript RT Reagent Kit (Takara). The expression levels of the mRNA of the genes of interest were determined by quantitative PCR (LightCycler® 480 Instrument II) with the primers listed in Table 2: […]
(§6) The results are calculated using the Delta Delta Ct (Δ ΔCt) method.

E-CADHERIN = test: q-RT-PCR expression of EMT markers in MDA-MB-231 cells under hypoxia: E-CADHERIN; assay type: cell-based, human; conditions: althiazide 100 μM, hypoxic conditions (1% O2), vs control, FIG. 11
Experimental: as §2, §3, §4, §5, §6

C=CCSCC1Nc2cc(Cl)c(S(N)(=O)=O)cc2S(=O)(=O)N1 (racemic) [althiazide]
reduction of the number of HSCs accumulated in CHT [1]: 41%
reduction of the number of HSCs accumulated in CHT ([1]; listed as Althiazide): most effective chemical compound
anti-migratory effect (HSCs accumulated in CHT) compared with dasatinib ([1]; 10 μM both, control DMSO 1%, FIG. 5): as effective as dasatinib
decrease in the number of cells that colonized/migrated in CHT, second test ([1]; 10 μM, larger number of embryos (n=64 and n=74), FIG. 4): 36.2%
efficiency on number of cells migrated to CHT ([1]; althiazide 1 μM): no effect
efficiency on number of cells migrated to CHT ([1]; althiazide 10 μM): 50%
efficiency on number of cells migrated to CHT ([1]; althiazide 100 μM): 100%
invasion of CHT by CD41:GFP cells / number of cells having colonized CHT, in words ([1]; thiazide compounds test, 10 μM or 25 μM, FIG. 9): most effective chemical compound
reduction of migration (cells having colonized CHT) ([1]; thiazide compounds test, FIG. 9, concentration not stated (tested at 10 and 25 μM)): 30%
toxic effects in the dose effect test ([1]; zebrafish, in vivo): appearance of toxic effects
change in expression of N-CADHERIN (N-CADHERIN): −33%
increase in E-CADHERIN expression (E-CADHERIN): 73%
